From paper PMC3723537, “Structural Basis for Native Agonist and Synthetic Inhibitor Recognition by the Pseudomonas aeruginosa Quorum Sensing Regulator PqsR (MvfR)” (PLoS Pathogens, 2013)
Entries after “also recorded” stand apart in the source; their conditions may differ. Where two headings read alike, the source gives them in different places.

Legend:
AQ biosynthesis = tested on: AQ biosynthesis; parameters: method as in PMID 17941706; details: cited from earlier work
PqsR [1] = biological target: T1, PqsR (Pseudomonas aeruginosa, UniProt Q9I4X0); test: cell-based; parameters: assayed for their agonist and antagonist activities in a whole P. aeruginosa bacterial cell assay; endogenous in cells; host or cells: P. aeruginosa PAO1 wild type, ΔpqsA or ΔpqsAH strains carrying a chromosomal (mini)CTX::pqsA'-lux fusion; details: for Agonist activity on PqsR (in words): pqsA'-lux reporter
T1 sequence (Q9I4X0 1-332): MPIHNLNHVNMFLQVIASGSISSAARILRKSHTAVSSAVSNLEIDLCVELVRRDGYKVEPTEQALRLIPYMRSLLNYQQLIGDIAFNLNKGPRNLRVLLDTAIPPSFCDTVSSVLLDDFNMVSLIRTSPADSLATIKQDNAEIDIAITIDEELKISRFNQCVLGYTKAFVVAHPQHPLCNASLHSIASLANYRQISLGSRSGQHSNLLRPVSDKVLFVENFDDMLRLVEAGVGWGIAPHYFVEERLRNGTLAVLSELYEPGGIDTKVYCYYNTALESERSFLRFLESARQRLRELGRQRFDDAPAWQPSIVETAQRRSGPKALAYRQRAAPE

PqsR [2] = biological target: T1, PqsR; test: cell-based; parameters: assayed for their agonist and antagonist activities in a whole P. aeruginosa bacterial cell assay; endogenous in cells; host or cells: P. aeruginosa PAO1 wild type, ΔpqsA or ΔpqsAH strains carrying a chromosomal (mini)CTX::pqsA'-lux fusion; details: for Antagonist activity on PqsR (in words): pqsA'-lux reporter; for IC50: Figure 6 (QZNs), P. aeruginosa wild type strain with miniCTX::pqsA'-lux fusion, read-out: Antagonist IC50±SD
PqsR Leu207Glu = PqsR Leu207Glu (Pseudomonas aeruginosa, UniProt Q9I4X0, L207E); test: Response of PqsR-6His ligand binding site variants to PQS and HHQ, pqsA'-lux in ΔpqsA ΔpqsH ΔpqsR strain; assay type: cell-based; details: Leu207Glu mutation; co-inducer 40 µM
PqsR [3] = biological target: T1, PqsR; test: cell-based; parameters: assayed for their agonist and antagonist activities in a whole P. aeruginosa bacterial cell assay; endogenous in cells; host or cells: P. aeruginosa PAO1 wild type, ΔpqsA or ΔpqsAH strains carrying a chromosomal (mini)CTX::pqsA'-lux fusion; details: Figure 2 (AQs); P. aeruginosa ΔpqsAH CTX::pqsA'-lux strain; read-out: Agonist EC50 ±SD
PqsR [4] = biological target: T1, PqsR; parameters: assayed for their agonist and antagonist activities in a whole P. aeruginosa bacterial cell assay; endogenous in cells; host or cells: P. aeruginosa PAO1 wild type, ΔpqsA or ΔpqsAH strains carrying a chromosomal (mini)CTX::pqsA'-lux fusion; method as in PMID 17922753; details: cited from earlier work; for Activation of PqsR (in words): dependence on alkyl chain length
P. aeruginosa = test: Bacterial growth in the reporter assays; assay type: cell-based, Pseudomonas aeruginosa
Protocol: The impact of the AQs and QZNs on PqsR-dependent gene expression in P. aeruginosa was evaluated using lux-based pqsA, lecA and phzA1 promoter fusions (Table S1) in 96-well microtiter plates as described before,[23]. Bioluminescence and bacterial growth were quantified using a combined luminometer-spectrometer (Tecan GENios Pro). Where required, AQs or QZNs were added to reporter strains and EC50 or IC50 values were extracted from the sigmoidal dose–response curves obtained using Prism2 (Graphpad, San Diego, USA).

[5] = MeOH stock at a workable concentration
[6] = Figure 2 (AQs), P. aeruginosa ΔpqsA CTX::pqsA'-lux strain, read-out: Agonist EC50 ±SD
[7] = Figure 6 (QZNs), P. aeruginosa ΔpqsA miniCTX::pqsA'-lux strain, read-out: Agonist EC50±SD

In the case of `Nc1cc(Cl)ccc1C(=O)O` [4-CABA, 2-amino-4-chorobenzoic acid], the “Concentrations required to inhibit AQ production” value (AQ biosynthesis) is given as “millimolar range”.
For `CCCCCCCc1[nH]c2ccccc2c(=O)c1N` [5a], the EC50 (PqsR [1]; [6]) was 0.4 ± 0.15 µM.
In the case of `CCCCCCCCCc1nc2cc(F)ccc2c(=O)[nH]1` [7F-C9-QZN], the “Agonist activity on PqsR (in words)” value (PqsR [1]) is reported as “devoid of agonist or antagonist activity”, the “Agonist activity on PqsR (in words)” value (PqsR [1]; listed as 8) is reported as “partial agonists” and the “Antagonist activity on PqsR (in words)” value (PqsR [2]) is reported as “devoid of agonist or antagonist activity”.
In the case of `CCCCCCCc1nc2ccccc2c(=O)[nH]1` [C7-QZN], the “Agonist activity on PqsR (in words)” value (PqsR [1]) is reported as “devoid of agonist or antagonist activity” and the “Antagonist activity on PqsR (in words)” value (PqsR [2]) is reported as “devoid of agonist or antagonist activity”.
For `CCCCCCCCCc1nc2ccccc2c(=O)[nH]1` [C9-QZN], the “Agonist activity on PqsR (in words)” value (PqsR [1]) was “devoid of agonist or antagonist activity” and the “Antagonist activity on PqsR (in words)” value (PqsR [2]) was “devoid of agonist or antagonist activity”.
With `CCCCCCCc1cc(O)c2ccccc2n1` [compound 2, 2-heptyl-4-hydroxyquinoline] the “Response, % of pqsA promoter activity with respect to strain expressing PqsR-6His” value (PqsR Leu207Glu) was 5%, the EC50 (PqsR [1]; [6]) was 0.8 ± 0.3 µM and the EC50 (PqsR [3]) was 16.4 ± 2.6 µM. The “EC50 for PqsR-dependent activation of pqsA” value (PqsR [4]; whole P. aeruginosa cell assays) was “low micromolar range”.
For `CCCCCCCCCc1cc(O)c2ccccc2n1` [compound 3, 2-nonyl-4-hydroxyquinoline], the EC50 (PqsR [1]; [6]) is given as 0.4 ± 0.1 µM, the EC50 (PqsR [3]) is given as 2.5 ± 1.5 µM and the “Activation of PqsR (in words)” value (PqsR [4]) is given as “highly active”.
For `CCCCCCCCCc1[nH]c2ccccc2c(=O)c1O` [compound 4, 2-nonyl-3-hydroxy-4(1H)-quinolone], the EC50 (PqsR [1]; [6]) is given as 1.1 ± 0.5 µM, the EC50 (PqsR [3]) is given as 9.1 ± 11.2 µM and the “Activation of PqsR (in words)” value (PqsR [4]) is given as “highly active”.
With `CCCCCCCc1[nH]c2cc(Cl)ccc2c(=O)c1O` [compound 5] the EC50 (PqsR [1]; [6]) was 0.014 ± 0.005 µM and the “Agonist potency relative to PQS” value (PqsR [1]; in P. aeruginosa, from Figure 2 EC50s) was ~135 times.
In the case of `CCCCCCCc1nc2ccccc2c(=O)n1O` [compound 9], the EC50 (PqsR [1]; [7]) is reported as 54 ± 6.6 µM and the “Agonist activity on PqsR (in words)” value (PqsR [1]) is reported as “partial agonists”.
Work on `CCCCCCCCCc1nc2ccccc2c(=O)n1O` [compound 10] yielded an EC50 (PqsR [1]; [7]) of 30 ± 3.8 µM.
`CCCCCCCCCc1nc2cc(Cl)ccc2c(=O)n1O` [compound 11] showed an EC50 (PqsR [1]; [7]) of 12.7 ± 7.8 µM.
In the case of `CCCCCCCCCc1nc2cc(F)ccc2c(=O)n1O` [compound 12], the EC50 (PqsR [1]; [7]) is reported as 21 ± 5.5 µM and the “Agonist activity on PqsR (in words)” value (PqsR [1]) is reported as “totally devoid of agonist activity”.
With `CCCCCCCc1nc2ccccc2c(=O)n1OC` [compound 13] the “Agonist activity on PqsR (in words)” value (PqsR [1]) was “inactive; also recorded: totally devoid of agonist activity”.
In the case of `CCCCCCCCCc1nc2ccccc2c(=O)n1OC` [compound 14], the “Agonist activity on PqsR (in words)” value (PqsR [1]) is reported as “inactive”.
`CCCCCCCCCc1nc2cc(Cl)ccc2c(=O)n1OC` [compound 15] showed an EC50 (PqsR [1]; [7]) of 37.3 ± 6.5 µM.
With `CCCCCCCCCc1nc2cc(F)ccc2c(=O)n1OC` [compound 16] the EC50 (PqsR [1]; [7]) was 2.2 µM.
With `CCCCCCCCCc1nc2cc(F)c(F)cc2c(=O)n1OC` [compound 17] the EC50 (PqsR [1]; [7]) was 53.6 ± 13.7 µM and the “Reduction of agonist potency relative to 3-OMe-7F-C9-QZN” value (PqsR [1]; second fluorine introduced) was ~25 fold.
With `CCCCCCCc1nc2ccccc2c(=O)n1N` [compound 19] the “Agonist activity on PqsR (in words)” value (PqsR [1]) was “None of these compounds were agonists” and the IC50 (PqsR [2]) was 54 ± 15.5 µM.
With `CCCCCCCCCc1nc2ccccc2c(=O)n1N` [compound 20] the “Agonist activity on PqsR (in words)” value (PqsR [1]) was “None of these compounds were agonists” and the IC50 (PqsR [2]) was 77.2 ± 1 µM.
In the case of `CCCCCCCCCCCc1nc2ccccc2c(=O)n1N` [compound 21], the “Agonist activity on PqsR (in words)” value (PqsR [1]) is reported as “None of these compounds were agonists” and the IC50 (PqsR [2]) is reported as 210 ± 77 µM.
With `CCCCCCCCCc1nc2ccc(Cl)cc2c(=O)n1N` [compound 22] the “Antagonist activity on PqsR (in words)” value (PqsR [2]) was “complete loss of antagonist activity”.
Work on `CCCCCCCCCc1nc2cc(F)ccc2c(=O)n1N` [compound 25] yielded an IC50 (PqsR [2]) of 3.9 ± 1.5 µM.
`CCCCCCCCCc1nc2cc(F)c(F)cc2c(=O)n1N` [compound 26] showed an IC50 (PqsR [2]) of 1.2 ± 0.4 µM.
With `CCCCCCCCCc1nc2cc(C(F)(F)F)ccc2c(=O)n1N` [compound 27] the “Antagonist activity on PqsR (in words)” value (PqsR [2]) was “complete loss of activity”.
With `CCCCCCCCCc1nc2cc(OC)c(OC)cc2c(=O)n1N` [compound 28] the “Antagonist activity on PqsR (in words)” value (PqsR [2]) was “inactive”.
In the case of `CCCCCC(C)CCc1nc2ccccc2c(=O)n1N` (stereo not shown) [compound 29], the “Antagonist activity on PqsR (in words)” value (PqsR [2]) is reported as “all inactive”.
With `CC(C)CCCCCCc1nc2ccccc2c(=O)n1N` [compound 30] the “Antagonist activity on PqsR (in words)” value (PqsR [2]) was “all inactive”.
For `CCCCOCCOCc1nc2ccccc2c(=O)n1N` [compound 32], the “Antagonist activity on PqsR (in words)” value (PqsR [2]) was “all inactive”.
In the case of `CCCCCCCCCc1nc2ccccc2c(=O)n1NC(C)=O` [compound 33], the “Antagonist activity on PqsR (in words)” value (PqsR [2]) is reported as “inactive or weak antagonists”.
With `CCCCCCCCCc1nc2ccccc2c(=O)n1CCN` [compound 35] the Growth inhibition (P. aeruginosa) was “exhibited growth inhibition”, the melting point was 77 to 81 °C and the “Antagonist activity on PqsR (in words)” value (PqsR [2]) was “inactive or weak antagonists”.
For `CCCCCCCCCc1nc2ccc(Cl)cc2c(=O)n1CCN` [compound 36], the Growth inhibition (P. aeruginosa) was “exhibited growth inhibition” and the melting point was 72 to 74 °C.
For `CCCCCCCCCc1nc2cc(Cl)ccc2c(=O)n1CCN` [compound 37], the Growth inhibition (P. aeruginosa) was “exhibited growth inhibition” and the melting point was 69 to 72 °C.
In the case of `CCCCCCCCCc1nc2cc(Cl)ccc2c(=O)n1CCCN` [compound 38], the Growth inhibition (P. aeruginosa) is reported as “exhibited growth inhibition” and the melting point is reported as 82 to 95 °C.
With `NCCn1c(CCCc2ccccc2)nc2cc(Cl)ccc2c1=O` [compound 39] the Growth inhibition (P. aeruginosa) was “exhibited growth inhibition” and the IC50 (PqsR [2]) was 79.2 ± 2.7 µM.
In the case of `Nn1c(CCCc2ccccc2)nc2cc(Cl)ccc2c1=O` [compound 41], the IC50 (PqsR [2]) is reported as 39.6 ± 11 µM.
With `Nn1c(CCc2c[nH]c3ccccc23)nc2cc(Cl)ccc2c1=O` [compound 43] the “Solubility (in words)” value [5] was “did not dissolve in MeOH at a workable concentration”.
With `Nn1c(Cc2ccc(-c3ccccc3)cc2)nc2cc(Cl)ccc2c1=O` [compound 44] the “Solubility (in words)” value [5] was “did not dissolve in MeOH at a workable concentration”.
In the case of `Nn1c(CCCC2CCCCC2)nc2ccccc2c1=O` [compound 46], the “Solubility (in words)” value [5] is reported as “barely soluble”.
For `CCCCCCCCCc1nc2ncccc2c(=O)n1N` [compound 47], the “Antagonist activity on PqsR (in words)” value (PqsR [2]) was “complete loss of activity”.
